Test results: ChEMBL document CHEMBL3217558 (Medchemcomm, 2012)

Legend:
[1] = molecular target: Hepatocyte growth factor receptor (Homo sapiens, UniProt P08581)
Description: Inhibition of c-Met (unknown origin) using poly (Glu, Tyr) 4:1 as substrate after 60 mins by ELISA

[2] = molecular target: Voltage-gated inwardly rectifying potassium channel KCNH2 (Homo sapiens, UniProt Q12809)
Chain of Voltage-gated inwardly rectifying potassium channel KCNH2 (Q12809 whole entry): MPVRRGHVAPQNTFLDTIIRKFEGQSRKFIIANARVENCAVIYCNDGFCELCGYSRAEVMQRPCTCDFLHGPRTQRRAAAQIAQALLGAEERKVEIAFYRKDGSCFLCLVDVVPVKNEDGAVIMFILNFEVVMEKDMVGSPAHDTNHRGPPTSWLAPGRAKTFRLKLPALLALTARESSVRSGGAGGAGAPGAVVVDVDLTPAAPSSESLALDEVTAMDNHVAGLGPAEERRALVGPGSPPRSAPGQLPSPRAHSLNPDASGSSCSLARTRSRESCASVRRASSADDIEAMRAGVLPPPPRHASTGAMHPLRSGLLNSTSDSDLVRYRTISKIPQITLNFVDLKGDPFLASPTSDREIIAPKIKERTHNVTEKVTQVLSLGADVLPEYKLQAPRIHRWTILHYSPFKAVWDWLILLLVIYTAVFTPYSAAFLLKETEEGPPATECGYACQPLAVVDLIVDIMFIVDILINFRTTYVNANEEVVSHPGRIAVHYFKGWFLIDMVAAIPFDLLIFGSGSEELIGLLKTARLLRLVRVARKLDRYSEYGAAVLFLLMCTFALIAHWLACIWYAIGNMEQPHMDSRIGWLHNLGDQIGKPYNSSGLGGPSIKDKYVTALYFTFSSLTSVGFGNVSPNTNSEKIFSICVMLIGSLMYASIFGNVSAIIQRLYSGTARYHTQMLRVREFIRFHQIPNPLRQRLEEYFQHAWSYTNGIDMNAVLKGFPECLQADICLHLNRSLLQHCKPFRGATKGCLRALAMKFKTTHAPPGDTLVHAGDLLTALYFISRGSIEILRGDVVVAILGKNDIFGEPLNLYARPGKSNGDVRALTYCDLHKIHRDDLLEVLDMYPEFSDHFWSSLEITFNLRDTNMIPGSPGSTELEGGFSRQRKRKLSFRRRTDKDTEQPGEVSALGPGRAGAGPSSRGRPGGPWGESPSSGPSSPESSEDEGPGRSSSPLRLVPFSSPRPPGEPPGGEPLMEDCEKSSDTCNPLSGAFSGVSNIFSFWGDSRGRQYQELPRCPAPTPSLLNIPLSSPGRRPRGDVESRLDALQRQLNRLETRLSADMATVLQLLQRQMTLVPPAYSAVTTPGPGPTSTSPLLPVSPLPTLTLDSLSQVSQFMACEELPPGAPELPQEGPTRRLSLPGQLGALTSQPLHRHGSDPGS

Chain of Hepatocyte growth factor receptor (P08581 whole entry): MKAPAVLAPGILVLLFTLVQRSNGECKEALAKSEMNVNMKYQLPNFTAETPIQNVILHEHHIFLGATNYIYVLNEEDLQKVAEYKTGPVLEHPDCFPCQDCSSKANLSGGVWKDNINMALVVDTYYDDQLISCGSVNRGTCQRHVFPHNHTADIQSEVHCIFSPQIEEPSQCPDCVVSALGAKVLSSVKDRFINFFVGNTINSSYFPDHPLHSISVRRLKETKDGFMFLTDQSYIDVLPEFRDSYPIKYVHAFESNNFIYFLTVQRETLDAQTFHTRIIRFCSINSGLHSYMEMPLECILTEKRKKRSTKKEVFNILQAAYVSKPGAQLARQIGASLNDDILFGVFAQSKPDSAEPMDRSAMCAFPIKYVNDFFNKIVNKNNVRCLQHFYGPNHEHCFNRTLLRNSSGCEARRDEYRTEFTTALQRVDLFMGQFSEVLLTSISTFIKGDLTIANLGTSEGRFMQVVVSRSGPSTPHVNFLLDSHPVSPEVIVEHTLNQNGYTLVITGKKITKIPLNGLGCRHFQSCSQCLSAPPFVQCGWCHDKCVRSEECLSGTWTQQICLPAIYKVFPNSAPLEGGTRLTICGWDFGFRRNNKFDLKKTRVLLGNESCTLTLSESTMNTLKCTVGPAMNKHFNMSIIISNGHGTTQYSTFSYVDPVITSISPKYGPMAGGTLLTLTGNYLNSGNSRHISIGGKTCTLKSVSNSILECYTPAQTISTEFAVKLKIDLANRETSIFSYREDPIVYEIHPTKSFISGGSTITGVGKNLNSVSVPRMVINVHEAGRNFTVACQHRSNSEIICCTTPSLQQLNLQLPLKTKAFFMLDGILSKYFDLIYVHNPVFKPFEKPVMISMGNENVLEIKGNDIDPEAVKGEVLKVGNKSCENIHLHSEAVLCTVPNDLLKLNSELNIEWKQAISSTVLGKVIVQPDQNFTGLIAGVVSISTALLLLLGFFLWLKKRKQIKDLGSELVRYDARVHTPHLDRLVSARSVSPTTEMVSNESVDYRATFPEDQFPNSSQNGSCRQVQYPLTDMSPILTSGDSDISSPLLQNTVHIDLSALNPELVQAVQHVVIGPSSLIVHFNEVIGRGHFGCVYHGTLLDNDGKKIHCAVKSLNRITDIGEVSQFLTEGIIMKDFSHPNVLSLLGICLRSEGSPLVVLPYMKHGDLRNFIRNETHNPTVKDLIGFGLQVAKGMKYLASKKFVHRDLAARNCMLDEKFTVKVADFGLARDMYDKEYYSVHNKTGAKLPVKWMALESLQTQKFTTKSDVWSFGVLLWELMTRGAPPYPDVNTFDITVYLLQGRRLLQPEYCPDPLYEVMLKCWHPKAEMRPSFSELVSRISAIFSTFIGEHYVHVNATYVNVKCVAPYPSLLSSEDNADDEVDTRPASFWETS

| IC50 [1] | SMILES | IC50 [2] |
| --- | --- | --- |
| 0.0016 µM | [2H]C(Nc1cc(C(F)(F)F)cc2ncc(N3CCN(C(C)=O)CC3)cc12)c1cccc([N+](=O)[O-])c1 (stereo not drawn) |  |
|  | CC(=O)c1cccc(CNc2cc(C(F)(F)F)cc3ncc(N4CCN(C)CC4)cc23)c1 | 93.6 µM |
|  | CCNC(=O)Nc1cccc(CNc2cc(C(F)(F)F)cc3ncc(N4CCN(C)CC4)cc23)c1 | 81.7 µM |
